Results published in patent EP3570868B1, “[…] ANTIMICROBIAL PEPTIDES AND THEIR APPLICATIONS FOR THE TREATMENT AND PREVENTION OF MUSCU[…]” (Ustav Organicke Chemie a Biochemie AV CR, v.v.i., priority 2017, dated 2018).
Peptide text beside a SMILES is read from it.

What was measured:
P. aeruginosa 5482 = test: Biofilm formation on the surface of a bone cement implant in femur heads; assay type: cell-based; details: two days
Procedure: (§6) The resulting elastic paste is placed into a 2 ml plastic syringe (without needle) and pressed into the infected holes in the spongy part of the bone, where it polymerizes and hardens. For comparison, other similarly infected holes are filled with cement containing only an antibiotic or antimycotic agent. […] The mixture in an amount of 125 mg is mixed with liquid monomer (50-60 µl) and then pressed into the openings as described above. In another embodiment, the cements are applied to uninfected holes, allowed to harden, and then microbes are pipetted into the hole excavated between implants. From there they penetrate through bone tissue and settle on the implants with consequent formation of biofilms.
(§7) After two days, implants are removed with metal spikes and tweezers, mechanically cleaned from debris of bone tissue, and washed four times with physiological saline (0.5 ml) in plastic tubes to remove any residual planktonic microbes or bone cells from their surface. The implants in closed tubes with 0.4 ml saline are then sonicated four times for 3 min with occasional shaking. The of microbial biofilm on the surface of the implant is thus disrupted and microbes are loosed into the physiological saline. The resulting suspension is subsequently diluted using the tenfold serial dilution for culturing on agar. […]

[1] = tested on: E.f. (clin. isolate Motol); assay type: cell-based, Enterococcus faecalis; details: 37° C for 20 h
Procedure: (§1) Gram-positive bacteria (Bacillus subtilis, Staphylococcus aureus, Staphylococcus epidermidis and Enterococcus faecalis), Gram-negative bacteria (Escherichia coli and Pseudomonas aeruginosa) and the yeast (Candida albicans) were grown to exponential phase and then were diluted with fresh medium. BHI medium (Oxoid, Great Britain) was used for Enterococcus faecalis; YPD medium containing yeast extract, peptone and glucose was used for Candida albicans and LB medium (Sigma, Czech Republic) was used for the remaining microorganisms. Then the microorganisms were added to the solutions of the tested antimicrobial peptides in LB medium in multi-well plates, so that the final peptide concentration it the wells was in the range of 0.5 to 100 µmοl.1^-1. The plates were incubated at 37° C for 20 h while being continuously shaken in a Bioscreen C (Oy Growth Curves AB Ltd., Helsinki, Finland). Absorbance was measured at 540 nm every 15 min. Antimicrobial activity (Table 2) was determined as a quantitative minimum inhibitory concentration (MIC) by observing bacterial growth in the presence of different concentrations of tested peptides. In the experiments, ca 10^5 CFU of bacteria or candida per well were used. Tetracycline in a concentration range of 0.5 - 100 µmol.1^-1 was used as a standard.
(§2) Clinical isolates of bacteria were obtained from University Hospital in Motol, Prague, Czech Republic and from Liberec Regional Hospital, Czech Republic. Methicillin resistant Staphylococcus aureus (MRSA) 6271 and Pseudomonas aeruginosa 5482 were from the Czech National Collection of Type Cultures, the National Institute of Public Health, Prague, Czech Republic. Other bacteria were from the Czech Collection of Microorganisms, Brno, Czech Republic. Candida albicans came from the Faculty of Medicine, Palacky University, Olomouc, Czech Republic. Candida tropicalis ATCC 750 and Candida glabrata DSY 565 were obtained from the Institute of Physiology, Academy of Sciences of the Czech Republic.

[2] = tested on: Candida albicans (clin. isolate Olomouc); test: Biofilm formation on the surface of a bone cement implant in femur heads; assay type: cell-based; details: two days, cement without peptide 6.0x10^3
Procedure: (§8) The resulting elastic paste is placed into a 2 ml plastic syringe (without needle) and pressed into the infected holes in the spongy part of the bone, where it polymerizes and hardens. For comparison, other similarly infected holes are filled with cement containing only an antibiotic or antimycotic agent. For comparison, a Vancogenx® cement (Tecresa S. p. A., Italy) is used, made from a mixture of a powdered polymer component containing vancomycin and gentamicin. The mixture in an amount of 125 mg is mixed with liquid monomer (50-60 µl) and then pressed into the openings as described above. In another embodiment, the cements are applied to uninfected holes, allowed to harden, and then microbes are pipetted into the hole excavated between implants. From there they penetrate through bone tissue and settle on the implants with consequent formation of biofilms.
(§9) After two days, implants are removed with metal spikes and tweezers, mechanically cleaned from debris of bone tissue, and washed four times with physiological saline (0.5 ml) in plastic tubes to remove any residual planktonic microbes or bone cells from their surface. The implants in closed tubes with 0.4 ml saline are then sonicated four times for 3 min with occasional shaking. The of microbial biofilm on the surface of the implant is thus disrupted and microbes are loosed into the physiological saline. The resulting suspension is subsequently diluted using the tenfold serial dilution for culturing on agar.
(§10) Evaluation of the effect of antimicrobial peptides on the formation of microbial biofilm on the surface of the implant made of the bone cement.

human red blood cells = test: Determination of haemolytic activity; assay type: cell-based; details: human red blood cells (5% v/v), 1 h at 37 °C; concentration for lysis of 50% of erythrocytes
Procedure: The peptides in the concentrations 2-400 µmol.1^-1 were incubated with the suspension of human red blood cells (5% v/v) for 1 h at 37 °C in a physiological solution at a final volume of 0.2 ml. The samples were then centrifuged for 5 min at 250 g. The absorbance of the supernatant was determined at 540 nm. 0.2% (v/v) TRITON X100 was used as a control for 100% haemolysis. Haemolytic activity is expressed as the peptide concentration required for lysis of 50% of human erythrocytes in the assay (LC50). Table 2. Antimicrobial and haemolytic activity of I up to XIII peptides and tetracycline.

Candida albicans = assay type: cell-based; details: C.a.; 37° C for 20 h
Procedure: as §1, §2

Escherichia coli = assay type: cell-based; details: E.c.; 37° C for 20 h
Procedure: as §1, §2

Bacillus subtilis = assay type: cell-based; details: B.s.; 37° C for 20 h
Procedure: as §1, §2

[3] = tested on: MRSA (clin. isolate Liberec); assay type: cell-based, Staphylococcus aureus; details: 37° C for 20 h
Procedure: as §1, §2

[4] = tested on: MRSA (clin. isolate Motol); assay type: cell-based, Staphylococcus aureus; details: 37° C for 20 h
Procedure: as §1, §2

MRSA 6271 [5] = assay type: cell-based, Staphylococcus aureus; details: 37° C for 20 h
Procedure: as §1, §2

[6] = tested on: S.e. (clin. isolate Motol); assay type: cell-based, Staphylococcus epidermidis; details: 37° C for 20 h
Procedure: as §1, §2

[7] = tested on: MRSA (clin. isolate Motol); test: Biofilm formation on the surface of a bone cement implant in femur heads; assay type: cell-based, Staphylococcus aureus; details: two days
Procedure: as §8
(§11) After two days, implants are removed with metal spikes and tweezers, mechanically cleaned from debris of bone tissue, and washed four times with physiological saline (0.5 ml) in plastic tubes to remove any residual planktonic microbes or bone cells from their surface. The implants in closed tubes with 0.4 ml saline are then sonicated four times for 3 min with occasional shaking. The of microbial biofilm on the surface of the implant is thus disrupted and microbes are loosed into the physiological saline. […]

P.a. 5482 = assay type: cell-based, Pseudomonas aeruginosa; details: 37° C for 20 h
Procedure: as §1, §2

[8] = tested on: P.a. (clin. isolate Liberec); assay type: cell-based, Pseudomonas aeruginosa; details: 37° C for 20 h
Procedure: as §1, §2

[9] = tested on: Candida tropicalis ATCC 750; test: Biofilm formation on the surface of a bone cement implant in femur heads; assay type: cell-based; details: two days, cement without peptide 3.7x10^5
Procedure: as §6, §7

[10] = tested on: MRSA (clin. isolate Liberec); test: Induced osteomyelitis model in femur heads: effect of peptides released from carrier on infection in the bone graft; assay type: cell-based, Staphylococcus aureus; details: ChronOS (200 mg); 10 mg, separate holes; two days; carrier without peptide 3,4x10^7
Procedure: (§3) 3-4 holes of a diameter of 5 mm and a depth of 10 mm are drilled with a surgical spoon into a femur head under sterile conditions (spongy part of the bone in the resection site). Thereafter, this bone graft is put into a beaker of appropriate size and lined with sterile gauze squares. The gauze is moistened with sterile physiological saline to prevent drying of the bone. Then, suspension of multiplied microbes in an appropriate medium (50-100 µl) at a concentration of 10^7 to 10^9 CFU is sequentially applied to the prepared holes in the bone graft and allowed to incubate for 1-2 days. […] Beaker with the infected bone graft is covered with a sterile Petri dish. During the experiment, induced osteomyelitis models are kept protected from light at room temperature.
(§4) After the incubation, the infected holes in the bone are filled with a mixture of the local carrier, and a peptide selected from the series of peptides of formulae I to XIII or their specific enantiomers (Figure 1). For comparison, one of the holes is filled with the local carrier without peptide, or the carrier filled with antibiotic (vancomycin or gentamicin). A commercially available two-component material supplied by Synthes (Synthes GmbH, Switzerland) under the name ChronOS Inject was used as the carrier. Its solid component comprises a mixture of calcium phosphates CaHPO4.2H2O and Ca3(PO4)2 and additives, the liquid component is 0.5% (vol./vol.) solution of hyaluronic acid.
(§5) After two days, the filling is thoroughly removed with a surgical spoon and empty holes are wiped with moistened sterile cotton swab, which is then extracted into 400 µl physiological saline. The extract is diluted in a tenfold serial dilution and each diluted suspension is cultured on agar in Petri dishes; the culture is evaluated on the following day. […] The result of the peptide effect is also compared with the result of the effect of antibiotics. In some cases, microbiological examination of the bone tissue taken with a surgical spoon from a deeper area of the drilled holes is performed. […] Table 3. Evaluation of the effect of antimicrobial peptides released from the carrier on an infection in the bone graft. Effect of antimicrobial activity is expressed in the number of CFU (colony-forming units) in the infected hole after swabbing.

MRSA 6271 [11] = test: as above; assay type: cell-based, Staphylococcus aureus; details: ChronOS (200 mg), two days, carrier without peptide 7,0x10^7
Procedure: as §3, §4, §5

[12] = tested on: S. epidermidis (clin. isolate Motol); test: as above; assay type: cell-based; details: ChronOS (300 mg); 10 mg, separate holes; two days; carrier without peptide 1,2x10^5
Procedure: as §3, §4, §5

[13] = tested on: P. aeruginosa (clin. isolate Liberec); test: Biofilm formation on the surface of a bone cement implant in femur heads; assay type: cell-based; details: two days, cement without peptide N/A
Procedure: as §6, §7

[14] = tested on: Enterococcus faecalis (clin. isolate Motol); test: as above; assay type: cell-based; details: two days
Procedure: as §8, §11

MRSA 6271 [15] = test: as above; assay type: cell-based, Staphylococcus aureus; details: two days
Procedure: as §8, §9, §10

[16] = tested on: S. epidermidis (clin. isolate Motol); test: as above; assay type: cell-based; details: two days, cement without peptide 4.0x10^6
Procedure: as §6, §7

[17] = tested on: S. aureus (clin. isolate Liberec); test: Induced osteomyelitis model in femur heads: effect of peptides released from carrier on infection in the bone graft; assay type: cell-based; details: ChronOS (200 mg); 10 mg, separate holes; two days; carrier without peptide 3,9x10^6
Procedure: as §3, §4, §5

[18] = tested on: MRSA (clin. isolate Liberec); test: Biofilm formation on the surface of a bone cement implant in femur heads; assay type: cell-based, Staphylococcus aureus; details: two days, cement without peptide 8,8x10^3
Procedure: as §8, §11

[19] = cement without peptide 2.8x10^6

| SMILES | Antimicrobial activity MIC [1] | CFU/implant [2] | Hemolytic activity LC50 (human red blood cells) [µM] | Antimicrobial activity MIC (Candida albicans) | Antimicrobial activity MIC (Escherichia coli) | Antimicrobial activity MIC (Bacillus subtilis) | Antimicrobial activity MIC [3] | Antimicrobial activity MIC [4] | Antimicrobial activity MIC (MRSA 6271 [5]) | Antimicrobial activity MIC [6] | Antimicrobial activity MIC (P.a. 5482) | Antimicrobial activity MIC [8] | CFU/hole [10] | further results |
| --- | --- | --- | --- | --- | --- | --- | --- | --- | --- | --- | --- | --- | --- | --- |
| CC[C@H](C)[C@H](NC(=O)[C@H](CCCCN)NC(=O)[C@H](CCCCN)NC(=O)[C@H](CC(C)C)NC(=O)[C@H](CC(C)C)NC(=O)[C@H](CCCCN)NC(=O)[C@H](CCSC)NC(=O)[C@H](Cc1c[nH]c2ccccc12)NC(=O)[C@H](CCCCN)NC(=O)CN)C(=O)N[C@@H](CC(C)C)C(=O)N[C@@H](CCCCN)C(N)=O [III] | 13,3 µmol.l^-1 | 2 CFU/implant | 339 | 5,7 µmol.l^-1 | 9,0 µmol.l^-1 | 1,8 µmol.l^-1 | 3,6 µmol.l^-1 | 5,7 µmol.l^-1 | 6,3 µmol.l^-1 | 2,3 µmol.l^-1 | 2,8 µmol.l^-1 | 10,0 µmol.l^-1 | 2,3x10^5 / 2,3x10^5 CFU/hole | CFU/implant (P. aeruginosa 5482; [19]): 2.6x10^1 CFU/implant; CFU/implant ([7]; cement without peptide 3,4x10^5): 0 CFU/implant; CFU/implant [9]: 0 CFU/implant; CFU/hole (MRSA 6271 [11]; III (5 mg)): 1,9x10^2 CFU/hole; CFU/hole (MRSA 6271 [11]; III (10 mg)): 7,6x10^2 CFU/hole; CFU/hole [12]: 0 in all cases CFU/hole; CFU/implant [13]: 1.1x10^3 CFU/implant; CFU/implant [14, 19]: 0 CFU/implant; CFU/implant ([14]; cement without peptide 2.9x10^5): 0 CFU/implant; CFU/implant (MRSA 6271 [15]; cement without peptide N/A, first experiment with III): 5.1 x 10^3 CFU/implant; CFU/implant (MRSA 6271 [15]; cement without peptide N/A, second experiment with III): 0 CFU/implant |
| CC[C@H](C)[C@H](NC(=O)[C@H](CCCCN)NC(=O)[C@H](CCCCN)NC(=O)[C@H](CC(C)C)NC(=O)[C@H](CC(C)C)NC(=O)[C@H](CCCCN)NC(=O)[C@H](CCSC)NC(=O)[C@H](Cc1c[nH]c2ccccc12)NC(=O)[C@@H](N)CCCCN)C(=O)N[C@@H](CC(C)C)C(=O)N[C@@H](CCCCN)C(N)=O [I] (H-KWMKLLKKILK-NH2) | >100 µmol/L | 6.8x10^1 CFU/implant | >400 | 9,5 µmol.l^-1 | 12,7 µmol.l^-1 | 2,3 µmol.l^-1 | 8,0 µmol.l^-1 | 17,7 µmol.l^-1 | 13,5 µmol.l^-1 | 3,2 µmol.l^-1 | 2,9 µmol.l^-1 | 5,8 µmol.l^-1 | 2,3x10^5 / 2,3x10^5 CFU/hole | CFU/implant (P. aeruginosa 5482; cement without peptide 6x10^5): 7.0x10^2 CFU/implant; CFU/implant [16]: 1,1x10^3 CFU/implant; CFU/implant ([7]; cement without peptide 2,6x10^6): 0 CFU/implant; CFU/hole [17]: 1,3x10^4 CFU/hole; CFU/implant [18]: 0 CFU/implant; CFU/implant (MRSA 6271 [15]; cement without peptide 1.1x10^6): 0 CFU/implant |
